“Also recorded” adds a separate entry of the source. Like-named read-outs stand apart in the source and are kept apart here.
Assays:
[1] = tested on: unstimulated mouse splenocytes; experiment: transwell chemotaxis assay in response to CXCL12, unstimulated splenocytes; format: cell-based
Procedure: (§1) Isolation of murine splenocytes. Splenocytes were isolated from 6-8 week old C57BL/6 mice obtained from Jackson Laboratories (Bar Harbor, Me.). Spleens were removed and a single-cell suspension prepared using 40 μm cell strainers (Fisher Scientific). Cells were washed with RPMI 1640 medium supplemented with 5% fetal bovine serum, 2 mM L-glutamine, 100 U/ml penicillin and […] (all from GIBCO). Red blood cells were lysed using standard lysis buffer (0.15M NH4Cl, 10mM KHCO3, 0.1 mM EDTA PH 7.4). Cells were then washed and used in chemotaxis assays either as unstimulated cells or after stimulation with Con A ([…]) as indicated.
(§2) Preparation of Test Reagents. […] This concentration of DMSO had no effect on migration of splenocytes in the presence or absence of CXCL12. CXCL12 was prepared as a 100 μg/ml stock solution in PBS+0.1% BSA, Con A was prepared as a stock of 2.5 mg/ml in PBS, and dibutyryl cAMP and Rp-cAMPS were prepared as 50 mM stock solutions in water, and these reagents were diluted directly into the chemotaxis assays.
(§3) Chemotaxis Assay. Chemotaxis assays were done in 24-well transwell plates with a pore size of 5 μm (Costar, Corning). Splenocytes were placed in medium at a concentration of 3×10^6 cells/ml. Where test agents were used, splenocytes were pretreated with the agent or vehicle for 45 to 60 min, following which 100 μl of the splenocyte suspension was placed into the upper chamber of transwell plates, and the lower chamber was filled with 600 μl of medium. When added to induce migration, CXCL12 (250 ng/ml) was added to the lower chamber only. Other test reagents were added as indicated to both the upper and lower chambers. After 4 hours of incubation at 37° C. in 5% CO2, transwell inserts were gently removed and the number of cells that migrated into the lower chamber were counted by withdrawing 500 μl of lower chamber medium, mixing it with 10 ml of buffer and counting the cells on a Coulter Counter (Beckman Coulter Z series). Where results are expressed as % of CXCL12-stimulated migration, this was calculated as follows: (cells migrated in presence of CXCL12 and test reagent—cells migrated in medium alone)/(cells migrated in presence of CXCL12-cells migrated in medium alone)×100. Experimental points for all chemotaxis assays were performed in triplicate.
(§4) Splenocytes isolated from mice were assayed for migration in response to CXCL12 (250 ng/ml), either directly (unstimulated) or following 48 hr of incubation with 3 μg/ml Con A (stimulated), as described in Methods. To test for effects of dibutyryl cAMP, cells were pretreated with dibutyryl cAMP (500 μM) for 45-60 min prior to beginning the chemotaxis assay, and the assays were conducted with dibutyryl cAMP (db-cAMP) present (500 μM) in both the upper and lower chambers of the transwell plates. Data plotted are derived from a single experiment performed in triplicate. *p<0.001; **p<0.02.

[2] = tested on: Con A-stimulated mouse splenocytes; experiment: transwell chemotaxis assay in response to CXCL12, Con A-stimulated splenocytes; format: cell-based; conditions: for effect on CXCL12-induced migration: forskolin 25 μM, motapizone 10 μM, piclamilast 1 μM
Procedure: as §1, §2, §3, §4

[3] = tested on: peripheral blood mononuclear cells; conditions: cited from earlier work
T cells = conditions: cited from earlier work
PDE4 [4] = conditions: cited from earlier work
[5] = tested on: Con A-activated splenocytes on TNF-α activated bEnd.3 endothelial cells; experiment: T cell-endothelial cell adhesion assay (Example 13); format: cell-based, mouse; conditions: for ability to reduce adhesion of activated T cells to endothelial cells: IBMX 300 μM, piclamilast 1 μM, motapizone 1 μM; for reversal of the inhibitory effect of DP on T cell adhesion: DP 100 μM with adenosine deaminase 1 U/ml or CXCL12 250 ng/ml
Procedure: (§5) Cell treatment. Confluent bEnd.3 monolayers were incubated with 200 ng/ml TNF-α (Peprotech, Rocky Hill, N.J.) at 37° c. for 2 hours. […] Christoff Zitt and Armin Hatzelmann (Altana Pharma, Konstanz, Germany). Con A-activated splenocytes or CD4^+CD25^− T cells activated with plate-bound anti-CD3 mAb were treated with the same reagents for 20, 45, or 90 minutes.
Adhesion assays. Adhesion assays were performed in 24-well plates with a confluent layer of bEnd.3 cells. Splenocytes or CD4^+CD25^− T cells were labeled with 5 μM Calcein AM (Molecular Probes, Eugene, Oreg.) and treated as described above. 7×10^5 pretreated splenocytes or CD4^+CD25^− T cells per well were incubated on bEnd.3 cells in RPMI media. After 30 minutes at 37° C., non-adherent cells were removed by washing with D-PBS. For analysis, 7×10^5 Calcein AM labeled splenocytes or CD4^+CD25^− T cells were used as positive controls. Fluorescence was read in a Victor 3v microplate reader (Perkin Elmer, Waltham, Mass.) with a fluorescein filter set. The percentage of adherent T cells, i.e. labeled cells resistant to detachment, was calculated as total fluorescence of well divided by fluorescence of 7×10^5 Calcein AM labeled cells multiplied by 100.
In FIGS. 20A-20B, splenocytes from C57BL/6 mice were activated with Con A (3 μg/ml) for 48 hours followed by a 45 minute incubation with (A) IBMX (300 μM), piclamilast (Picl, 1 μM) or DP (100 μM), (B) dibutryl cAMP (Db-cAMP, 500 μM) or DP in the presence or absence of adenosine deaminase (AD, 1 U/ml) or vehicle (0.1% DMSO). bEnd.3 endothelial cells were activated for 2 hours with TNF-α (200 ng/ml) and incubated with the same reagents for the final 45 minutes before splenocytes were added to the bEnd.3 cells for the adhesion assay. The data are presented as the mean±SEM percentage of splenocytes which were resistant to detachment. Results are representative of at least three independent experiments run in triplicate (*p<0.05, **p<0.001; one way ANOVA followed by Bonferroni t-test).

bEnd.3 endothelial cells = experiment: qRT-PCR gene expression in TNF-α activated bEnd.3 endothelial cells; format: cell-based, mouse; conditions: 45 minutes, DP 100 μM, dibutryl cAMP 500 μM
Procedure: Quantitative real-time RT-PCR analysis. 10 ng cDNA, or 2 μl cDNA for LCM studies, was amplified by qRT-PCR in a 25 μl reaction using SYBR Green PCR Master Mix (Applied Biosystems, Foster City, Calif.). Primers were designed using Primer Express software v3.0 and primer efficiency verified by slope analysis to be 100%±2.5%. qRT-PCR was performed using an ABI 7500 fast system and data analyzed using the Δ^ct method (SDS software v3.0). Amplicon sizes were approximately 100 bp.
as §5
In FIG. 23A, bEnd.3 endothelial cells were activated for 2 hours with TNF-α (200 ng/ml) and (A) DP (100 μM) or vehicle (0.1% DMSO) for the final 45 minutes. PDE gene expression was then analyzed by qRT-PCR and the data presented as the mean+SEM of 3 independent experiments assayed in triplicate (*p<0.05, **p<0.001; unpaired t-test).
The data are shown as a mean±SEM percentage of vehicle control and represent 3 independent experiments assayed in triplicate (*p<0.05, * *p<0.001; unpaired t-test).

PDE3 = conditions: read-out: Potency (IC50) PDE3; cited from earlier work
[6] = tested on: Con A activated splenocytes on bEND.3 brain derived endothelial cell monolayers; experiment: adhesion of Con A activated splenocytes to bEND.3 monolayer (Example 4); format: cell-based, mouse; conditions: piclamilast 1 μM; static assay
Procedure: The hypothesis was first tested using a series of experiments determining T cell adhesion to vascular endothelial cells. Confluent bEND.3 brain derived endothelial cell monolayers were pretreated with 100 ng/ml TNF-α. […] Splenocytes were allowed to adhere for 30 min at 37° C. without shaking after which nonadherent cells were removed by washing the wells 4× with prewarmed D-PBS. For analysis, 7×10^5 calcein AM labeled cells were added to an empty well as a representation of maximal possible fluorescence. The fluorescence of each well was read by a Victor 3v microplate reader with a fluorescein filter set. Background fluorescence (medium only) was subtracted from each well and percentage of adherent cells that is resistant to detachment under the conditions of washing the wells was calculated as fluorescence of well in percent of maximal fluorescence (without washing).

PDE4 [7] = experiment: PDE4 inhibition; format: biochemical
PDE1 = conditions: read-out: Potency (IC50) PDE1; cited from earlier work
[8] = Mus musculus, Splenocyte, 4 h, read-out: inhibition of CXCL12-induced migration

C=C[C@@]1(C)CC(=O)[C@]2(O)[C@@]3(C)[C@@H](O)CCC(C)(C)[C@@H]3[C@H](O)[C@H](OC(C)=O)[C@@]2(C)O1 [forskolin]
inhibition at 25 µM [1, 8]: 31% | effect on CXCL12-induced migration ([2]; Con A-stimulated splenocytes): no effect at all

COc1ccc(C2CNC(=O)C2)cc1OC1CCCC1 (centres unmarked) [rolipram]
lipopolysaccharide-stimulated release of TNF-α [3]: inhibit | adhesion of T cells (T cells; 8-48 hour treatment): blocked | adhesion to vascular ligands or endothelial cells (T cells; exposure for a short period of 4 hours): no effect | T cell adhesion (T cells; until after 8 hours of exposure): did not significantly inhibit | concentration above which specificity for PDE4 is lost (PDE4 [4]): […] | IC50 (PDE4 [4]; read-out: Potency (IC50) PDE4): […]

CC1CC(=O)NN=C1c1cc(-n2ccnc2)cs1 (centres unmarked) [motapizone]
ability to reduce adhesion of activated T cells to endothelial cells ([5]; 45 minute incubation): no inhibitory effect | effect on CXCL12-induced migration ([2]; Con A-stimulated splenocytes): no statistically significant effect; also recorded: not inhibited at all

CCCC(=O)Nc1ncnc2c1ncn2[C@@H]1O[C@@H]2COP(=O)(O)O[C@H]2[C@H]1OC(=O)CCC [dibutyryl cAMP]
reduction of adhesion of activated T cells to bEnd.3 endothelial cells ([5]; 45 minute incubation, DP 100 μM, dibutryl cAMP 500 μM, adenosine deaminase 1 U/ml): 81% | reduction of ICAM-1 mRNA expression (bEnd.3 endothelial cells): 42% | increase of claudin-5 gene expression (bEnd.3 endothelial cells; 8-bromo-cAMP 500 μM): 70% | reduction of CXCL12 gene expression (bEnd.3 endothelial cells; 8-bromo-cAMP 500 μM): 48% | reduction of VCAM-1 gene expression (bEnd.3 endothelial cells; 8-bromo-cAMP 500 μM): 33% | inhibition at 500 µM [1, 8]: 54% | inhibition at 500 µM [2, 8]: 29%

adenosine deaminase
reversal of the inhibitory effect of DP on T cell adhesion [5]: did not reverse | effect by itself on splenocyte migration ([2]; adenosine deaminase 1 U/ml, stimulated splenocytes): no effect

CN(C(=O)CCCOc1ccc2[nH]c(=O)ccc2c1)C1CCCCC1 [Cilostamide]
IC50 (PDE3): 5 nM

CXCL12: Recombinant mouse CXCL12, chemokine, chemoattractant for leukocytes
reversal of the inhibitory effect of DP on T cell adhesion [5]: did not reverse | effect on adhesion of Con A-stimulated splenocytes to endothelial cells [6]: did not increase | increase in number of migrating splenocytes ([1]; unstimulated splenocytes, CXCL12 250 ng/ml in lower chamber, 4 hr): 6.2 fold | increase in number of migrating splenocytes ([2]; Con A-stimulated splenocytes, CXCL12 250 ng/ml in lower chamber, 4 hr): 2.5 fold

COc1ccc(C(=O)Nc2c(Cl)cncc2Cl)cc1OC1CCCC1 [piclamilast]
ability to reduce adhesion of activated T cells to endothelial cells ([5]; 45 minute incubation): no short term suppressive effect | Ki (PDE4 [7]; purified PDE4): ~0.3 nM | concentration margin before any other PDE gene family is inhibited (PDE4 [7]; relative to PDE4 inhibition): more than 5 orders of magnitude | effect on adhesion of Con A-stimulated splenocytes to endothelial cells [6]: not inhibited at all | effect on CXCL12-induced migration ([2]; Con A-stimulated splenocytes): no statistically significant effect; also recorded: not inhibited at all | IC50 (PDE4 [4]; read-out: IC50, PDE4): 1 nM

CCOC(=O)C1=C[C@]2(CC)CCCN3CCc4c(n1c1ccccc41)[C@@H]32 [Vinpocetine]
IC50 (PDE1): 5000 to 25000 nM

Nc1ncnc2c1ncn2[C@@H]1O[C@@H]2COP(O)(=S)O[C@H]2[C@H]1O (single isomer, unassigned) [Rp-cAMPS, 3′,5′-cyclic monophosphorothioate, Rp-isomer]
reversal of dipyridamole inhibition of CXCL12-stimulated chemotaxis ([2]; Rp-cAMPS 1 mM with dipyridamole 100 μM): reversed; also recorded: reversal

From patent publication US20090239884A1, “Methods of Treating Inflammation” (priority 2006, published 2009)
